Test results: patent EP0906100B1, “USE OF 5-HT 1A? RECEPTOR ANTAGONISTS FOR THE TREATMENT OF URINARY INCONTINENCE” (RECORDATI S.A., priority 1996, dated 1997)

Tested on: post-synaptic 5-HT1A receptor
Experiment: Inhibition of forepaw treading induced by 8-OH-DPAT in rats
Type: in vivo
Details: i.p., forepaw treading induced by 1 mg/kg s.c. 8-OH-DPAT
Protocol: Inhibition of forepaw treading induced by 8-OH-DPAT in rats:
Male Sprague-Dawley rats (150-175 g) obtained from Charles River (Italy), were housed in a climate-controlled room and maintained on a 12 h light/dark cycle with free access to food and water. On the day of experiment, rats were placed singly in clear plastic boxes. Reserpinised rats were treated with reserpine, 1 mg/kg s.c., 18-24 h before the test.
The appearance of the forepaw treading symptom induced by post-synaptic stimulation of the 5HT1A receptors was noted, and its intensity was scored using a ranked intensity scale in which: 0 = absent, 1 = equivocal, 2 = present and 3 = intense. Behavioural scores for each treated rat were accumulated over the time course (5 observation periods) and expressed as mean values of 8-10 rats.

COc1ccccc1N1CCN(CCCCN2C(=O)c3ccccc3C2=O)CC1 [NAN-190, 1-(2-methoxyphenyl)-4-[4-(2-phthalimido)-butyl]-piperazine]
NORMAL RATS ID50 (normal rats): 700 (500-1000) µg/Kg | RESERPINIZED RATS ID50 (reserpinized rats): 2000 (1600-2400) µg/Kg
